Results from patent US10597388B2, “Pyridazinone herbicides” (FMC CORPORATION, priority 2014, dated 2020).

Key:
Assay in all cases: Test C greenhouse herbicide test, pre- and postemergence
Type in all cases: in vivo
[1] = tested on: foxtail, giant (giant foxtail, Setaria faberii)
Procedure, shortened: (§1)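 Preemergence: seeds sown in a loam soil–sand blend and sprayed with test chemicals in a non-phytotoxic solvent mixture containing surfactant. Postemergence: plants grown in peat-based medium and treated at 2 to 18 cm (1- to 4-leaf stage). After 13 to 15 d in a greenhouse, injury was visually rated 0–100 against controls.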

[2] = tested on: pigweed (Amaranthus retroflexus)
Procedure, shortened: as §1

[3] = tested on: barnyardgrass (Echinochloa crus-galli)
Procedure, shortened: as §1

[4] = tested on: nutsedge, yellow (yellow nutsedge, Cyperus esculentus)
Procedure, shortened: as §1

[5] = tested on: wheat (winter wheat, Triticum aestivum)
Procedure, shortened: as §1

corn (Zea mays) = tested on: corn (Zea mays)
Procedure, shortened: as §1

[6] = tested on: ryegrass, Italian (Italian ryegrass, Lolium multiflorum)
Procedure, shortened: as §1

[7] = tested on: crabgrass, large (large crabgrass, Digitaria sanguinalis)
Procedure, shortened: as §1

soybean (Glycine max) = tested on: soybean (Glycine max)
Procedure, shortened: as §1

[8] = tested on: blackgrass (Alopecurus myosuroides)
Procedure, shortened: as §1

[9] = tested on: ragweed (common ragweed, Ambrosia elatior)
Procedure, shortened: as §1

[10] = tested on: velvetleaf (Abutilon theophrasti)
Procedure, shortened: as §1

[11] = tested on: lambsquarters (Chenopodium album)
Procedure, shortened: as §1

[12] = tested on: galium (catchweed bedstraw, Galium aparine)
Procedure, shortened: as §1

[13] = tested on: oilseed rape (Brassica napus)
Procedure, shortened: as §1

[14] = Postemergence, 31 g ai/ha, 0 to 100 scale (0 no effect, 100 complete control)
[15] = Postemergence, 125 g ai/ha, scale 0 to 100, 0 is no effect, 100 is complete control
[16] = Postemergence, 250 g ai/ha, scale 0 to 100, 0 no effect, 100 complete control, 13 to 15 d
[17] = Preemergence, 31 g ai/ha, scale 0 to 100, 0 is no effect, 100 is complete control
[18] = Preemergence, 62 g ai/ha, scale 0 to 100, 0 is no effect, 100 is complete control
[19] = Preemergence, 125 g ai/ha, scale 0 to 100, 0 is no effect, 100 is complete control
[20] = Preemergence, 250 g ai/ha, scale 0 to 100, 0 no effect, 100 complete control
[21] = postemergence, 62 g ai/ha, scale 0 to 100, 0 no effect, 100 complete control

Cc1nn(C)c(=O)c(-c2ccc(Br)c3ccccc23)c1O [Compound 75]
Foxtail, Giant plant response rating [1, 14]: 5 | Plant response rating, Foxtail, Giant [1, 15]: 5 | Plant response rating, Foxtail, Giant [1, 16]: 10 | Plant response rating, Foxtail, Giant [1, 17]: 5 | Plant response rating, Foxtail, Giant [1, 18]: 45 | Plant response rating, Foxtail, Giant [1, 19]: 70 | Foxtail, Giant plant response rating [1, 20]: 75 | Foxtail, Giant plant response rating [1, 21]: 5 | Pigweed plant response rating [2, 14]: 85 | Plant response rating, Pigweed [2, 15]: 100 | Plant response rating, Pigweed [2, 16]: 98 | Plant response rating, Pigweed [2, 17]: 85 | Plant response rating, Pigweed [2, 18]: 100 | Plant response rating, Pigweed [2, 19]: 100 | Pigweed plant response rating [2, 20]: 100 | Pigweed plant response rating [2, 21]: 95 | Barnyardgrass plant response rating [3, 14]: 25 | Plant response rating, Barnyardgrass [3, 15]: 15 | Plant response rating, Barnyardgrass [3, 16]: 20 | Plant response rating, Barnyardgrass [3, 17]: 5 | Plant response rating, Barnyardgrass [3, 18]: 25 | Plant response rating, Barnyardgrass [3, 19]: 50 | Barnyardgrass plant response rating [3, 20]: 85 | Barnyardgrass plant response rating [3, 21]: 25 | Nutsedge, Yellow plant response rating [4, 14]: 25 | Plant response rating, Nutsedge, Yellow [4, 15]: 50 | Plant response rating, Nutsedge, Yellow [4, 16]: 70 | Plant response rating, Nutsedge, Yellow [4, 17]: 15 | Plant response rating, Nutsedge, Yellow [4, 18]: 40 | Plant response rating, Nutsedge, Yellow [4, 19]: 65 | Nutsedge, Yellow plant response rating [4, 20]: 75 | Nutsedge, Yellow plant response rating [4, 21]: 20 | Wheat plant response rating [5, 14]: 0 | Plant response rating, Wheat [5, 15]: 0 | Plant response rating, Wheat [5, 16]: 0 | Plant response rating, Wheat [5, 17]: 0 | Plant response rating, Wheat [5, 18]: 0 | Plant response rating, Wheat [5, 19]: 10 | Wheat plant response rating [5, 20]: 5 | Wheat plant response rating [5, 21]: 0 | Corn plant response rating (corn (Zea mays); [14]): 5 | Plant response rating, Corn (corn (Zea mays); [15]): 10 | Plant response rating, Corn (corn (Zea mays); [16]): 10 | Plant response rating, Corn (corn (Zea mays); [17]): 0 | Plant response rating, Corn (corn (Zea mays); [18]): 5 | Plant response rating, Corn (corn (Zea mays); [19]): 0 | Corn plant response rating (corn (Zea mays); [20]): 10 | Corn plant response rating (corn (Zea mays); [21]): 5 | Ryegrass, Italian plant response rating [6, 14]: 80 | Plant response rating, Ryegrass, Italian [6, 15]: 85 | Plant response rating, Ryegrass, Italian [6, 16]: 85 | Plant response rating, Ryegrass, Italian [6, 17]: 90 | Plant response rating, Ryegrass, Italian [6, 18]: 90 | Plant response rating, Ryegrass, Italian [6, 19]: 90 | Ryegrass, Italian plant response rating [6, 20]: 90 | Ryegrass, Italian plant response rating [6, 21]: 80 | Crabgrass, Large plant response rating [7, 14]: 5 | Plant response rating, Crabgrass, Large [7, 15]: 5 | Plant response rating, Crabgrass, Large [7, 16]: 20 | Plant response rating, Crabgrass, Large [7, 17]: 75 | Plant response rating, Crabgrass, Large [7, 18]: 10 | Plant response rating, Crabgrass, Large [7, 19]: 25 | Crabgrass, Large plant response rating [7, 20]: 50 | Crabgrass, Large plant response rating [7, 21]: 10 | Soybean plant response rating (soybean (Glycine max); [14]): 20 | Plant response rating, Soybean (soybean (Glycine max); [15]): 35 | Plant response rating, Soybean (soybean (Glycine max); [16]): 10 | Plant response rating, Soybean (soybean (Glycine max); [17]): 0 | Plant response rating, Soybean (soybean (Glycine max); [18]): 20 | Plant response rating, Soybean (soybean (Glycine max); [19]): 45 | Soybean plant response rating (soybean (Glycine max); [20]): 55 | Soybean plant response rating (soybean (Glycine max); [21]): 35 | Blackgrass plant response rating [8, 14]: 5 | Plant response rating, Blackgrass [8, 15]: 20 | Plant response rating, Blackgrass [8, 16]: 35 | Plant response rating, Blackgrass [8, 17]: 20 | Plant response rating, Blackgrass [8, 18]: 30 | Plant response rating, Blackgrass [8, 19]: 30 | Blackgrass plant response rating [8, 20]: 30 | Blackgrass plant response rating [8, 21]: 5 | Ragweed plant response rating [9, 14]: 95 | Plant response rating, Ragweed [9, 15]: 100 | Plant response rating, Ragweed [9, 16]: 100 | Plant response rating, Ragweed [9, 17]: 80 | Plant response rating, Ragweed [9, 18]: 85 | Plant response rating, Ragweed [9, 19]: 90 | Ragweed plant response rating [9, 20]: 100 | Ragweed plant response rating [9, 21]: 85 | Velvetleaf plant response rating [10, 14]: 70 | Plant response rating, Velvetleaf [10, 15]: 85 | Plant response rating, Velvetleaf [10, 16]: 85 | Plant response rating, Velvetleaf [10, 17]: 35 | Plant response rating, Velvetleaf [10, 18]: 85 | Plant response rating, Velvetleaf [10, 19]: 90 | Velvetleaf plant response rating [10, 20]: 98 | Velvetleaf plant response rating [10, 21]: 50 | Lambsquarters plant response rating [11, 14]: 100 | Plant response rating, Lambsquarters [11, 15]: 100 | Plant response rating, Lambsquarters [11, 16]: 100 | Plant response rating, Lambsquarters [11, 17]: 65 | Plant response rating, Lambsquarters [11, 18]: 100 | Plant response rating, Lambsquarters [11, 19]: 85 | Lambsquarters plant response rating [11, 20]: 90 | Lambsquarters plant response rating [11, 21]: 100 | Galium plant response rating [12, 14]: 90 | Plant response rating, Galium [12, 15]: 90 | Plant response rating, Galium [12, 16]: 90 | Plant response rating, Galium [12, 17]: 90 | Plant response rating, Galium [12, 18]: 90 | Plant response rating, Galium [12, 19]: 90 | Galium plant response rating [12, 20]: 98 | Galium plant response rating [12, 21]: 90 | Oilseed Rape plant response rating [13, 14]: 70 | Plant response rating, Oilseed Rape [13, 15]: 90 | Plant response rating, Oilseed Rape [13, 16]: 80 | Plant response rating, Oilseed Rape [13, 17]: 30 | Plant response rating, Oilseed Rape [13, 18]: 70 | Plant response rating, Oilseed Rape [13, 19]: 90 | Oilseed Rape plant response rating [13, 20]: 98 | Oilseed Rape plant response rating [13, 21]: 70
